Drawing on ChEMBL document CHEMBL1136507, “Imidazopyrimidines, potent inhibitors of p38 MAP kinase” (Bioorg Med Chem Lett, 2003), this text covers inhibition in vivo, IC50 and inhibition for twelve compounds.

The term inhibition in vivo denotes the share of the control response that was lost under treatment. A lower inhibition in vivo goes with a response near the control. One may read the IC50 as the concentration needed to halve the response being measured. A low value points to greater potency in that assay.

For assay [1], the system named is Mus musculus. Nature of the assay: Percentage inhibition against LPS-induced TNF-alpha production in mice at a 10 mg/kg dose. It is filed as functional.
The target of assay [2] is Mitogen-activated protein kinase 14 (Mus musculus, UniProt P47811). Nature of the assay: Inhibition of murine p38 alpha kinase.
Mitogen-activated protein kinase 14, sequence (P47811 whole entry): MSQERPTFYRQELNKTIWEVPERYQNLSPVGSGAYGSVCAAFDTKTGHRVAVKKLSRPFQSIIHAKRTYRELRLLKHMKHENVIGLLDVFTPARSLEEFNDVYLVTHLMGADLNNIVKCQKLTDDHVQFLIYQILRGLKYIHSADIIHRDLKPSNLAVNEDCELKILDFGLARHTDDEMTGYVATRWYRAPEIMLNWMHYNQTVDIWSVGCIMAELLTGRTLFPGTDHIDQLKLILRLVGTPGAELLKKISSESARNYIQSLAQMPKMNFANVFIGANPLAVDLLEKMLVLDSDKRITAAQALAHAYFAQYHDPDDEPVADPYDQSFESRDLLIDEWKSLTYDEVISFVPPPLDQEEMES
Assay [3] has as its system Mus musculus. Nature of the assay: Percentage inhibition against LPS-induced TNF-alpha production in mice at a 10 mg/kg dose; Not active. The format is functional, organism-based. Also on record: dose 10 mg/kg.
A further assay has as its target MAP kinase p38 (Homo sapiens, UniProt O15264+Q15759+Q16539+P53778). The assay is described as follows: Inhibition of LPS-induced p38-related TNF-alpha production in human peripheral blood mononuclear cells. It is filed as functional.
Assay [4] deals with Mus musculus. The assay is described as follows: Percentage inhibition against LPS-induced TNF-alpha production in mice at a 2 mg/kg dose. The format is functional.

Calls of active or inactive are those of the source. The calls are words filed in the database; no cut-off is given here.

`Fc1ccc(-c2[nH]c3ccc4[nH]c(Cc5ccccc5)nc4c3c2-c2ccncc2)cc1` registered an inhibition in vivo at 10 mg/kg with Mus musculus [1] of 70%. Besides, the IC50 in assay [2] amounted to 22 nM.
With `Nc1ccn2c(-c3ccncc3)c(-c3ccc(F)cc3)nc2n1`, testing at 10 mg/kg with Mus musculus [1] gave an inhibition in vivo of 97%. Also, in assay [2], the IC50 came out at 570 nM.
On to `C[C@@H](Nc1nccc(-c2c(-c3ccccc3)nc3nc(N)ccn23)n1)c1ccccc1`, for which, in the assay on Mus musculus [1], 10 mg/kg produced 66% inhibition in vivo. In addition, the IC50 in assay [2] amounted to 37 nM.
`Nc1ccn2c(-c3ccnc(N[C@H]4CCCc5ccccc54)c3)c(-c3ccccc3)nc2n1`: in the assay with Mus musculus [3], the inhibition result is “inactive”. In addition, the IC50 in assay [2] is 8 nM.
Regarding `CSc1nccc(-c2c(-c3ccccc3)nc3nc(N)ccn23)n1`, in the assay with Mus musculus [1], at 10 mg/kg the inhibition in vivo was 23%. Also, the values for the half-inhibitory concentration (IC50) (in assay [2]; on MAP kinase p38) were 457 nM and 28 nM, respectively.
`C[C@H](Nc1cc(-c2c(-c3ccccc3)nc3nc(N)ccn23)ccn1)c1ccccc1`: the inhibition in vivo at 2 mg/kg in the assay with Mus musculus [4] came to 34%. The same compound displayed an inhibition in vivo at 10 mg/kg in the assay with Mus musculus [1] of 96%. Further, the IC50 was determined as 1 nM in assay [2] and 2 nM against MAP kinase p38.
In the assay with Mus musculus [1], `COC[C@H](C)Nc1cc(-c2c(-c3ccccc3)nc3nc(N)ccn23)ccn1` displayed an inhibition in vivo at 10 mg/kg of 93%. The compound also showed an IC50 in assay [2] of 2 nM.
In the assay with Mus musculus [1], `Nc1ccn2c(-c3ccncn3)c(-c3ccccc3)nc2n1` showed an inhibition in vivo at 10 mg/kg of 73%. Also, the IC50 in assay [2] turned out to be 990 nM; at MAP kinase p38, 304 nM.
`Nc1ccn2c(-c3ccnc(NCc4ccccc4)c3)c(-c3ccc(F)cc3)nc2n1`: the inhibition in vivo at 10 mg/kg in the assay with Mus musculus [1] is 42%. Moreover, the IC50 (in assay [2]; against MAP kinase p38) was 6 nM each time.
For `COc1nccc(-c2c(-c3ccccc3)nc3nc(N)ccn23)n1`, in the assay on Mus musculus [1], testing at 10 mg/kg gave an inhibition in vivo of 87%. Also, the values for the IC50 (in assay [2]; at MAP kinase p38) were 210 nM and 90 nM, respectively.
For the compound `COc1cc(N)[nH]c2nc(-c3ccc(F)cc3)c(-c3ccncc3)c1-2`, the inhibition in vivo at 10 mg/kg in the assay with Mus musculus [1] was found to be 75%.
For the compound `C[C@H](Nc1nccc(-c2c(-c3ccccc3)nc3nc(N)ccn23)n1)c1ccccc1`, in the assay with Mus musculus [4], the inhibition in vivo at 2 mg/kg was 83%. Moreover, in the assay on Mus musculus [1], the inhibition in vivo at 10 mg/kg is 100%. In addition, the midpoint of inhibition in assay [2], the IC50, lay at 8 nM.
